Data on five molecules can be found in US20250235543A1, “MODIFIED PROTEINS AND PROTEIN DEGRADERS” (Cullgen (Shanghai), Inc., priority 2021, published 2025).

Assay type in all cases: cell-based
One assay concerns P300/CBP. Briefly: P300/CBP cellular protein degradation. The gist of the method: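 Treated cells lysed in RIPA buffer with protease and phosphatase inhibitors, protein normalized by BCA assay. P300/CBP levels assessed by SDS-PAGE Western blot with ECL detection and band densitometry.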
A further assay concerns NCI-H522. Briefly: Cell viability assay, NCI-H522. As to conditions: Homo sapiens, 72 h; NCI-H522, NSCLC, 3 days; read-out: Cellular Anti-proliferation activity (IC50). As to the method: (§1) Cells were treated with CDK4/6 inhibitors palbociclib, ribociclib, or abemaciclib, or heterobifunctional compounds CPD-002 or CPD-031 following a 9-point serial dilution for 3 days.
(§2) Cells were seeded at a density of 2,000-5,000 cells per well in 96-well assay plates and treated with test compounds following a 10-point serial dilution for 3-6 days. Cell viability was determined using the CellTiter-Lumi assay kit according to the manufacturer's instructions. The dose-response curves were determined and IC50 values were calculated using the GraphPad Prism software following a nonlinear regression (least squares fit) method. Data presented was mean±standard deviation (SD) unless otherwise indicated.

The next assay has as its system T47D cells. Description: Flow cytometric analysis of Annexin V/7-AAD stained T47D cells. As to conditions: 6 days. As to the method: ER^+ breast cancer T47D cells were treated with DMSO, palbociclib, heterobifunctional compound CPD-343, or negative control compound CPD-380 for 6 days at doses approximating IC50 and IC90 concentrations determined in FIGS. 10A and 13. Cells were harvested by trypsinization, staining was carried out using the Annexin V Apoptosis Detection Kit. The percentages of early apoptotic (Annexin V^+7-AAD^−, lower right quadrant), late apoptotic (Annexin V^+7-AAD^+, upper right quadrant) and necrotic cells (Annexin V-7-AAD^+, upper left quadrant) are indicated on dot plots. […] Furthermore, we developed one ER^+ breast cancer T47D model with acquired resistance after long period of treatment with 1 μM palbociclib (over IC90). Cells were deemed resistant when growing in the presence of palbo at the same rate as parental cells. Palbo resistance was determined by CellTiter-Lumi cell viability assay.
For orientation: In flow cytometry, cells or beads pass a laser one at a time.

A further assay concerns MDA-MB-453. Description: Cell viability assay, MDA-MB-453. The settings on record: Homo sapiens, 72 h; MDA-MB-453, TNBC, 3 days; read-out: Cellular Anti-proliferation activity (IC50). As to the method:
as §1, §2

The next assay relates to BT-549. Briefly: Cell viability assay, BT-549. The settings on record: Homo sapiens, 72 h; BT-549, TNBC, 3 days; read-out: Cellular Anti-proliferation activity (IC50). On the procedure: as §1, §2
In the next assay the test system is MDA-MB-468. Description: Cell viability assay, MDA-MB-468. As to conditions: Homo sapiens, 72 h; MDA-MB-468, TNBC, 3 days; read-out: Cellular Anti-proliferation activity (IC50). As to the method:
as §1, §2

For a further assay, the system named is MDA-MB-157. Description: Cell viability assay, MDA-MB-157. The settings on record: Homo sapiens, 72 h; MDA-MB-157, TNBC, 3 days; read-out: Cellular Anti-proliferation activity (IC50). As to the method: as §1, §2
A further assay has as its system Hs578T. Description: Cell viability assay, Hs578T. As to conditions: Homo sapiens, Hs-578T, 72 h, TNBC, 3 days, read-out: Cellular Anti-proliferation activity (IC50). On the procedure: as §1, §2
The next assay has as its system Cal-62. Briefly: Cell viability assay, Cal-62. The settings on record: Homo sapiens, 72 h; Cal-62, TC, 3 days; read-out: Cellular Anti-proliferation activity (IC50). As to the method:
as §1, §2

A further assay concerns OVCAR3. Description: Cell viability assay, OVCAR3. As to conditions: Homo sapiens, OVCAR-3, 72 h; OVCAR3, OC, 3 days; read-out: Cellular Anti-proliferation activity (IC50). As to the method:
as §1, §2

For another assay, the system named is KURAMOCHI
Briefly: Cell viability assay, KURAMOCHI
As to conditions: 72 h, OC, 3 days, read-out: Cellular Anti-proliferation activity (IC50). As to the method:
as §1, §2

A further assay deals with Calu-1. Briefly: Cell viability assay, Calu-1. The settings on record: Homo sapiens, 72 h; Calu-1, NSCLC, 3 days; read-out: Cellular Anti-proliferation activity (IC50). On the procedure: as §1, §2
For the next assay, the system named is MIA PaCa-2. Description: Cell viability assay, MIA PaCa-2. The settings on record: Homo sapiens, 72 h; MIA PaCa-2, PC, 3 days; read-out: Cellular Anti-proliferation activity (IC50). On the procedure: as §1, §2

As to `CC(=O)N1CCc2c(c(N3CCCc4cc(-c5cnn(C)c5)c(C(F)F)cc43)nn2C2CCN(CC(=O)NCCCCCCCCCC(=O)Nc3ccccc3C(=O)Nc3nc(C)c([N+](=O)[O-])s3)CC2)C1` [CPD-217, 2-(10-(2-(4-(5-Acetyl-3-(7-(difluoromethyl)-6-(1-methyl-1H-pyrazol-4-yl)-3,4-dihydroquinolin-1(2H)-yl)-4,5,6,7-tetrahydro-1H-pyrazolo[4,3-c]pyridin-1-yl)piperidin-1-yl)acetamido)decanamido)-N-(4-methyl-5-nitrothiazol-2-yl)benzamide], the “P300/CBP Degradation (100 nM)” value in the assay with P300/CBP is “D (degradation activity < 30%)”.
Take `CC(=O)N1CCc2c(c(N3CCCc4cc(-c5cnn(C)c5)c(C(F)F)cc43)nn2C2CCN(CC(=O)NCCCCCCCCCCC(=O)Nc3ccccc3C(=O)Nc3nc(C)c([N+](=O)[O-])s3)CC2)C1` [CPD-218, 2-(11-(2-(4-(5-Acetyl-3-(7-(difluoromethyl)-6-(1-methyl-1H-pyrazol-4-yl)-3,4-dihydroquinolin-1(2H)-yl)-4,5,6,7-tetrahydro-1H-pyrazolo[4,3-c]pyridin-1-yl)piperidin-1-yl)acetamido)undecanamido)-N-(4-methyl-5-nitrothiazol-2-yl)benzamide]: in the assay with P300/CBP, the “P300/CBP Degradation (100 nM)” value was “D (degradation activity < 30%)”.
In the case of `CC(=O)c1c(C)c2cnc(Nc3ccc(N4CCNCC4)cn3)nc2n(C2CCCC2)c1=O` [Palbociclib, palbociclib], the IC50 in the assay with NCI-H522 was more than 10 µM; in the assay with MDA-MB-453, 2.7 µM; in the assay on BT-549, more than 10 µM; with MDA-MB-468, more than 10 µM; in the assay with MDA-MB-157, more than 10 µM; with Hs578T it was more than 10 µM. In addition, the IC50 in the assay with Cal-62 is more than 10 µM; in the assay on OVCAR3, more than 10 µM; in the assay with KURAMOCHI it was more than 10 µM; in the assay with Calu-1 it was more than 10 µM; in the assay on MIA PaCa-2, more than 3 µM. Further, the “Annexin V+ population” value is recorded as 15.9% in the assay with T47D cells (100 nM) and 26.1% in the assay on T47D cells (1 μM).
For the molecule `CCN1CCN(Cc2ccc(Nc3ncc(F)c(-c4cc(F)c5nc(C)n(C(C)C)c5c4)n3)nc2)CC1` [abemaciclib], the IC50 is more than 3 µM in the assay on NCI-H522; 0.03 µM in the assay on MDA-MB-453; 2.07 µM with BT-549; 3.09 µM in the assay on MDA-MB-468; more than 10 µM in the assay on MDA-MB-157; 1.2 µM in the assay with Hs578T. Further, the IC50 in the assay on Cal-62 is 2.12 µM; with OVCAR3, more than 10 µM; in the assay with KURAMOCHI it was 2.5 µM; in the assay with Calu-1, 29 µM; with MIA PaCa-2 it was 0.55 µM.
Turning to `CN(C)C(=O)c1cc2cnc(Nc3ccc(N4CCNCC4)cn3)nc2n1C1CCCC1` [ribociclib], the IC50 with NCI-H522 is more than 10 µM; in the assay on MDA-MB-453 it was more than 3 µM; with BT-549 it was more than 10 µM; in the assay on MDA-MB-468, more than 10 µM; in the assay with MDA-MB-157, more than 10 µM; in the assay on Hs578T, more than 10 µM. For the same molecule, the IC50 is more than 10 µM with Cal-62; more than 10 µM with OVCAR3; more than 10 µM in the assay with KURAMOCHI; more than 10 µM with Calu-1; more than 3 µM in the assay on MIA PaCa-2.
